The values that follow come from US4786648A, “O-substituted tetrahydropyridine oxime cholinergic agents” (Warner-Lambert Company, priority 1987, dated 1988).

Like-named read-outs stand apart in the source and are kept apart here.

Assay [1] relates to age-related cognitive deficits. The following applies: H. P. Davis, et al (1983); cited from earlier work.
Assay [2] addresses central muscarinic binding site. Briefly: RCMD screening assay (inhibition of radio-labeled cis-methyldioxolane binding, rat cerebral cortex tissue). How it is done:
Similarly, in the RCMD screening assay, described more fully by T. W. Vickeroy, et al, J. Pharmacol. Exp. Ther., 229 (3): 747 (1984), rat cerebral cortex tissue was treated with radio-labeled cis-methyldioxolane,a known muscarinic binding site agonist. The concentrations of test compounds required to inhibit 50% of the binding of this muscarinic agonist were then determined.

Assay [3] has the same target. The following applies: radio-labeled quinuclidinyl benzilate (antagonist), rat cerebral cortex.
The subject of assay [4] is laboratory rats given scopolamine. Briefly: SIS, scopolamine induced swimming test. Type of assay: in vivo, rat. The following applies: for minimal effective dose: Rattus norvegicus, sc, Tables 3 and 4, Subcutaneous, five minute test period, read-out: Minimal Effective Dose for Reversal of Scopolamine-Induced Swimming Hyperactivity; for reversal of scopolamine-induced swimming hyperactivity: rats given scopolamine. How it is done: In a second screening assay, designated SIS, the scopolamine induced swimming test, the ability of representative compounds of the present invention to reverse the hyperactive swimming behavior of laboratory rats given scopolamine was assessed. In this test, untreated rats will generally swim between 20 to 30 meters during a five minute test period. […] This swimming hyperactivity can be reversed by administration of physostigmine or the cholinergic agonist, arecoline. The effect of scopolamine is centrally mediated; the ability of a test compound to reverse the hyperactive swimming behavior induced by scopolamine is thus a measure of the central cholinergic activity of the compound.

Assay [5] concerns patients clinically diagnosed as having presenile primary degenerative dementia. The following applies: double blind study, Christie, et al (1981); cited from earlier work.
For assay [6], the system named is Aged humans and nonhuman primates with decreased cognition. The following applies: acetylcholinesterase inhibitor treatment; cited from earlier work.
[7] abbreviates: Table 1, radio-labeled cis-methyldioxolane (agonist).
The mark [8] stands for this setting: Table 2, radio-labeled cis-methyldioxolane (agonist).

`Nc1ccncc1N` [3,4-diaminopyridine]: the “effect on age-related cognitive deficits” value in assay [1] is recorded as “ameliorate age-related cognitive deficits”.
Regarding `CCC(=NOC)C1=CCCNC1` [Example 2, 1-(1,2,5,6-Tetrahydro-3-pyridinyl)-1-propanone, O-Methyloxime], the IC50 is 290 nM in assay [2] (setting [7]) and 9500 nM in assay [3] (Table 1).
Regarding `CON=CC1=CCCN(C)C1` [Example 3, 1,2,5,6-Tetrahydro-1-methyl-3-pyridinecarboxaldehyde O-Methyloxime], in assay [4] (scopolamine 0.1 mg/kg, rats), the minimal effective dose worked out at 3.2 mg/kg. Besides, the IC50 is 2 nM in assay [2] (setting [7]) and 1800 nM in assay [3] (Table 1).
For the molecule `CON=CC1=CCCNC1` [Example 4, 1,2,5,6-Tetrahydro-3-pyridinecarboxaldehyde, O-Methyl oxime], the minimal effective dose in assay [4] (scopolamine 0.1 mg/kg, rats) came out at 3.2 mg/kg. For the same molecule, the results for the IC50 in assay [2] (setting [7]) and in assay [3] (Table 1) were 10 nM and 7100 nM, respectively.
On to `CCON=CC1=CCCN(C)C1` [Example 6, 1,2,5,6-Tetrahydro-1-methyl-3-pyridinecarboxaldehyde, O-Ethyloxime], for which the IC50 came to 28 nM in assay [2] (setting [7]) and 10000 nM in assay [3] (Table 1).
The matching figures for `CCON=CC1=CCCNC1` [Example 7, 1,2,5,6-Tetrahydro-3-pyridinecarboxaldehyde, O-ethyloxime]: 42 nM and 1000 nM.
For `CON=C(C)C1=CCCNC1` [Example 8, 1-(1,2,5,6-Tetrahydro-3-pyridinyl)ethanone, O-methyloxime], in that order: 28 nM and 5800 nM.
Turning to `CON=C(C)C1=CCNCC1` [Example 13, 1-(1,2,3,6-Tetrahydro-4-pyridinyl)ethanone, O-Methyloxime], the minimal effective dose in assay [4] (scopolamine 0.1 mg/kg, rats) amounted to 10 mg/kg.
For the molecule `CON=CC1=CCN(C)CC1` [Example 14, 1,2,3,6-Tetrahydro-1-methyl-4-pyridinecarboxaldehyde, O-Methyloxime], the minimal effective dose in assay [4] (scopolamine 0.1 mg/kg, rats) came out at 32 mg/kg. The IC50 in assay [2] (setting [8]) was more than 0.1 nM; in assay [3] (Table 2), more than 1 nM.
As to `CON=CC1=CCNCC1` [Example 15, 1,2,3,6-Tetrahydro-4-pyridinecarboxaldehyde, O-Methyloxime], the results for the IC50 in assay [2] (setting [8]) and in assay [3] (Table 2) were more than 0.1 nM and less than 1 nM, respectively.
With `COC(=O)C1=CCCN(C)C1` [arecoline, methyl ester of 1,2,5,6-tetrahydro-1-methyl-3-pyridinecarboxylic acid, reference compound], the “reversal of scopolamine-induced swimming hyperactivity” value in assay [4] is listed as “reversed”. Moreover, the “improvement in a test of picture recognition” value in assay [5] is “Significant improvement”.
As to `CNC(=O)Oc1ccc2c(c1)[C@]1(C)CCN(C)[C@@H]1N2C` [physostigmine, reference compound], the “reversal of scopolamine-induced swimming hyperactivity” value in assay [4] was “reversed”. Besides, the “memory in aged humans and nonhuman primates with decreased cognition” value in assay [6] is given as “improved memory”.
For `CN1[C@@H]2C[C@@H](OC(=O)[C@H](CO)c3ccccc3)C[C@H]1[C@@H]1O[C@@H]12` [scopolamine, reference compound], the “increase of swimming distance above baseline values” in assay [4] (scopolamine 0.1 mg/kg, rats) is 75-125%.

Usually IC50 stands for the concentration that gives 50% inhibition. Higher therefore signals lower potency. The minimal effective dose is the lowest level tested that produced the effect sought.
